Tests used:
Details in all cases: incubation time: 72 h
BT-474 [1] = assay: normalised response (% of control), CellTox Green; higher = less cell death (100 = DMSO, 0 = benzethonium chloride kill control)
Method in brief: (§1)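 Each value is the plate-normalised signal at one concentration of the series. Breast cancer cell lines (20 µl suspension) were incubated 72 h in 384-well plates with compound at 5 concentrations in 10-fold steps over a compound-specific 10,000-fold range. CellTox Green and then CellTiter-Glo were read, and each plate was scaled to 0.1 % DMSO (100) and a positive kill control (0).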

BT-549 [2] = assay: as above
Method in brief: as §1

CAL-120 [3] = assay: as above
Method in brief: as §1

CAL-148 [4] = assay: as above
Method in brief: as §1

CAL-51 [5] = assay: as above
Method in brief: as §1

CAL-85-1 [6] = assay: as above
Method in brief: as §1

DU-4475 [7] = assay: as above
Method in brief: as §1

HCC1143 [8] = assay: as above
Method in brief: as §1

HCC1599 [9] = assay: as above
Method in brief: as §1

HDQ-P1 [10] = assay: as above
Method in brief: as §1

Hs578T [11] = assay: as above
Method in brief: as §1

MCF-10A [12] = assay: as above
Method in brief: as §1

MDA-MB-231 [13] = assay: as above
Method in brief: as §1

MDA-MB-436 [14] = assay: as above
Method in brief: as §1

MDA-MB-453 [15] = assay: as above
Method in brief: as §1

MDA-MB-468 [16] = assay: as above
Method in brief: as §1

MFM-223 [17] = assay: as above
Method in brief: as §1

BT-474 [18] = assay: normalised response (% of control), CellTiter-Glo; higher = more viable cells (100 = DMSO, 0 = benzethonium chloride kill control)
Method in brief: as §1

BT-549 [19] = assay: as above
Method in brief: as §1

CAL-120 [20] = assay: as above
Method in brief: as §1

CAL-148 [21] = assay: as above
Method in brief: as §1

CAL-51 [22] = assay: as above
Method in brief: as §1

CAL-85-1 [23] = assay: as above
Method in brief: as §1

DU-4475 [24] = assay: as above
Method in brief: as §1

HCC1143 [25] = assay: as above
Method in brief: as §1

HCC1599 [26] = assay: as above
Method in brief: as §1

HCC1937 [27] = assay: as above
Method in brief: as §1

HDQ-P1 [28] = assay: as above
Method in brief: as §1

Hs578T [29] = assay: as above
Method in brief: as §1

MCF-10A [30] = assay: as above
Method in brief: as §1

MDA-MB-231 [31] = assay: as above
Method in brief: as §1

MDA-MB-436 [32] = assay: as above
Method in brief: as §1

MDA-MB-453 [33] = assay: as above
Method in brief: as §1

MDA-MB-468 [34] = assay: as above
Method in brief: as §1

MFM-223 [35] = assay: as above
Method in brief: as §1

SK-BR-3 = assay: as above
Method in brief: as §1

HCC1937 [36] = assay: normalised response (% of control), CellTox Green; higher = less cell death (100 = DMSO, 0 = benzethonium chloride kill control)
Method in brief: as §1

| SMILES | normalised response (BT-474 [1]) | normalised response (BT-549 [2]) | normalised response (CAL-120 [3]) | normalised response (CAL-148 [4]) | normalised response (CAL-51 [5]) | normalised response (CAL-85-1 [6]) | normalised response (DU-4475 [7]) | normalised response (HCC1143 [8]) | normalised response (HCC1599 [9]) | normalised response (HDQ-P1 [10]) | normalised response (Hs578T [11]) | normalised response (MCF-10A [12]) | normalised response (MDA-MB-231 [13]) | normalised response (MDA-MB-436 [14]) | normalised response (MDA-MB-453 [15]) | normalised response (MDA-MB-468 [16]) | normalised response (MFM-223 [17]) | normalised response (BT-474 [18]) | normalised response (BT-549 [19]) | normalised response (CAL-120 [20]) | normalised response (CAL-148 [21]) | normalised response (CAL-51 [22]) | normalised response (CAL-85-1 [23]) | normalised response (DU-4475 [24]) | normalised response (HCC1143 [25]) | normalised response (HCC1599 [26]) | normalised response (HCC1937 [27]) | normalised response (HDQ-P1 [28]) | normalised response (Hs578T [29]) | normalised response (MCF-10A [30]) | normalised response (MDA-MB-231 [31]) | normalised response (MDA-MB-436 [32]) | normalised response (MDA-MB-453 [33]) | normalised response (MDA-MB-468 [34]) | normalised response (MFM-223 [35]) | normalised response (SK-BR-3) | normalised response (HCC1937 [36]) |
| --- | --- | --- | --- | --- | --- | --- | --- | --- | --- | --- | --- | --- | --- | --- | --- | --- | --- | --- | --- | --- | --- | --- | --- | --- | --- | --- | --- | --- | --- | --- | --- | --- | --- | --- | --- | --- | --- |
| CC1(C)CCC(CN2CCN(c3ccc(C(=O)NS(=O)(=O)c4ccc(NCC5CCOCC5)c([N+](=O)[O-])c4)c(Oc4cnc5[nH]ccc5c4)c3)CC2)=C(c2ccc(Cl)cc2)C1 [ABT-199] (1000 nM) | 99.9% | 76.5% | 89.8% | 71.6% | 87.8% | 102% | 98% | 74.1% | 92.1% | 104% | 105% | 112% | 102% | 85% | 99.2% | 66.1% | 99.2% | 95.4% | 101% | 99.5% | 105% | 69.8% | 96.9% | 90.6% | 101% | 105% | 103% | 97.4% | 98.7% | 96.9% | 99.3% | 94.8% | 102% | 93.6% | 94.5% | 107% | – |
| CC(=O)N(O)CCCCCNC(=O)CCC(=O)N(O)CCCCCNC(=O)CCC(=O)N(O)CCCCCN [Deferoxamine] (1000 nM) | 96.8% | 102% | 96.8% | 2.01% | 91.1% | 110% | 97.5% | 82.2% | 96.7% | 106% | 97.3% | 79.7% | 96.7% | 73.7% | 100% | 143% | 70.8% | 90.9% | 72.7% | 96.1% | 59.6% | 88.7% | 102% | 85.8% | 79.5% | 98.2% | 76.8% | 93.6% | 96.8% | 97.7% | 86.8% | 87.4% | 84.2% | 63.3% | 89.5% | 84.2% | -39.7% |
| C[C@]12CC[C@@H]3c4ccc(OC(=O)N(CCCl)CCCl)cc4CC[C@H]3[C@@H]1CC[C@@H]2O [Estramustine] (1000 nM) | 89% | 98.6% | 93.9% | 46.8% | 84.7% | 107% | 96.5% | 103% | 90.2% | 70.6% | – | 55.8% | 94% | 93.3% | 97.3% | 182% | 93.1% | 96.1% | 104% | 99.9% | 78.6% | 80.7% | 93.3% | 88.5% | 93.5% | 111% | 95.5% | 103% | 95.9% | 92% | 94.4% | 98.5% | 93.5% | 87.1% | 86.2% | 87.4% | 67% |
| CC1(C)CNc2cc(NC(=O)c3cccnc3NCc3ccncc3)ccc21 [Motesanib] (10 nM) | – | – | – | – | – | – | – | – | – | – | – | – | – | – | – | – | – | 105% | 95.3% | 97.9% | 87.4% | 123% | 92.9% | 99.4% | 98.2% | 101% | 99.6% | 93.9% | 98.3% | 93.9% | 91.2% | 99.4% | 106% | 96.8% | 93.7% | 76.2% | – |
| Cc1ccc([N+](=O)[O-])cc1S(=O)(=O)N(C)/N=C/c1cnc2ccc(Br)cn12 [PIK-75] (1 nM) | – | – | – | – | – | – | – | – | – | – | – | – | – | – | – | – | – | 89.6% | 99% | 92.4% | 96.4% | 73.8% | 92.2% | 95.6% | 93.8% | 108% | 94.7% | 98.8% | 97.9% | 95% | 92.9% | 88.9% | 100% | 94.9% | 92.2% | 99.6% | – |
| Cc1ccc([N+](=O)[O-])cc1S(=O)(=O)N(C)/N=C/c1cnc2ccc(Br)cn12 [PIK-75] (10 nM) | – | – | – | – | – | – | – | – | – | – | – | – | – | – | – | – | – | 83.5% | 101% | 86.8% | 90.3% | 79.1% | 89.3% | 97% | 90.2% | 96.9% | 90.3% | 95.5% | 91.5% | 108% | 88.9% | 99.1% | 79.2% | 82.2% | 92.7% | 74.4% | – |
| CC(=O)c1c(C)c2cnc(Nc3ccc(N4CCNCC4)cn3)nc2n(C2CCCC2)c1=O [Palbociclib] (1 nM) | – | – | – | – | – | – | – | – | – | – | – | – | – | – | – | – | – | 89.6% | 100% | 95% | 88.4% | 118% | 97.8% | 97.8% | 88% | 96.1% | 101% | 90.1% | 95.7% | 89.3% | 91.6% | 101% | 99.2% | 91.9% | 90.3% | 86% | – |
| CC(=O)c1c(C)c2cnc(Nc3ccc(N4CCNCC4)cn3)nc2n(C2CCCC2)c1=O [Palbociclib] (10 nM) | – | – | – | – | – | – | – | – | – | – | – | – | – | – | – | – | – | 97.2% | 100% | 95.2% | 87% | 115% | 92% | 97.2% | 94.5% | 107% | 101% | 97.9% | 100% | 97.3% | 92.1% | 95.4% | 93.6% | 92.4% | 91.2% | 89.5% | – |
| CC[C@@H]1C(=O)OC[C@@H]1Cc1cncn1C [Pilocarpine] (40 nM) | – | – | – | – | – | – | – | – | – | – | – | – | – | – | – | – | – | 94.3% | 96.1% | 94.2% | 96.8% | 127% | 103% | 102% | 103% | 81% | 97.6% | 98.3% | 98.1% | 98.1% | 97.4% | 94% | 106% | 94.7% | 96.1% | 89.9% | – |
| COc1cc(F)c(F)c(Nc2ccc(I)cc2F)c1NS(=O)(=O)C1(C[C@H](O)CO)CC1 [Refametinib] (1 nM) | – | – | – | – | – | – | – | – | – | – | – | – | – | – | – | – | – | 91.2% | 98.6% | 101% | 101% | 75.2% | 97% | 104% | 93.6% | 99.5% | 93.6% | 92.8% | 92.9% | 79.4% | 100% | 91.6% | 87.9% | 92.7% | 94.4% | 91.2% | – |
| COc1cc(F)c(F)c(Nc2ccc(I)cc2F)c1NS(=O)(=O)C1(C[C@H](O)CO)CC1 [Refametinib] (10 nM) | – | – | – | – | – | – | – | – | – | – | – | – | – | – | – | – | – | 95.5% | 96.5% | 99.5% | 86.9% | 130% | 90.7% | 92% | 95.8% | 109% | 97.9% | 89.2% | 96.5% | 58.5% | 94.4% | 90.7% | 101% | 87.2% | 87.9% | 79.6% | – |
| CC(C)(C)c1cnc(CSc2cnc(NC(=O)C3CCNCC3)s2)o1 [SNS-032] (10 nM) | – | – | – | – | – | – | – | – | – | – | – | – | – | – | – | – | – | 93.4% | 95.1% | 96.6% | 98.5% | 65.3% | 109% | 99.2% | 89.7% | 107% | 97.8% | 92.1% | 102% | 105% | 96.5% | 101% | 99.6% | 96.7% | 97.2% | 95.8% | – |
| Cn1cnc2c(F)c(Nc3ccc(Br)cc3Cl)c(C(=O)NOCCO)cc21 [Selumetinib] (10 nM) | – | – | – | – | – | – | – | – | – | – | – | – | – | – | – | – | – | 89.8% | 99.9% | 93% | 90.6% | 107% | 107% | 95.1% | 91% | 95% | 97.3% | 86.6% | 99.4% | 77.4% | 97.2% | 96.3% | 96.8% | 94.8% | 90.8% | 90.6% | – |
